Each block holds one compound with its values, some of them ahead of it.
How the values were obtained:
α-arabinosidase [1] = assay: Enzymatic hydrolysis of the muscat glycosidic extract by α-arabinosidase (GC); type: biochemical; settings: for GC peak of the glycosidic extract after incubation with α-arabinosidase / Terpene monoglucosides liberated by α-arabinosidase from a glycosidic extract: 0.15 nkat, 40° C., 16 h; for Compounds appearing after action of α-arabinosidase: HPLC-collected peak, appears together with arabinose; for % of monoglucosides (liberated by the two enzymes together): sum of α-arabinosidase and α-rhamnosidase
Procedure: (§1) 40 μl of glycosidic extract and 60 μl of a solution of Glc-pNP (internal standard) at a concentration of 50 mg/1 in ethyl acetate are introduced into a suitable flask. The mixture is taken to dryness at 40° C. with a stream of nitrogen. 40 μl of the silylating reagent (Tri-sil, Pierce, Rockford, Ill., U.S.A.) are then introduced; the flask is sealed and maintained at 40° C. for 20 minutes. After rapid cooling, the silylated sample is then ready for analysis by GC.
(§2) The apparatus used consists of a Series 30C gas chromatograph, an "on-column" injector (injected volume 0.5 μl) and a flame ionization detector (Girdel, France). A thin film (0.20 μm) of an OV-1 (Girdel) apolar silicone phase is grafted onto the inner wall of the capillary column ([…].). The oven temperature is programmed from 125 to 305° C. at the rate of 5° C./minute, then maintained at 305° C. for 15 minutes. Finally, the detector temperature is set at 300° C. and hydrogen is used as the carrier gas at a pressure of 120 kPa.
(§3) The experimental protocols for the enzymatic hydrolysis on the glycosidic extract are collated in Table 3. […]

[2] = test system: α-arabinosidase and then β-glucosidase; assay: Sequential hydrolysis by α-arabinosidase and then β-glucosidase (GC of sugars, glucosides, terpenols); type: biochemical; settings: HPLC-collected peak; appears together with glucose
Procedure: The monoterpene alcohols studied here are sufficiently volatile to be chromatographed as they are. To the pentane extract containing them, the internal standard, 4-nonanol (for synthesis, Merck, Darmstadt, FRG) is added in the proportion of 1 μl of a solution at a concentration of 2.89 mg/ml in pentane per 50 μl of medium. The mixture is then dried over sodium sulphate, filtered through glass wool and then concentrated to a volume in the region of 100 μl For this purpose, the pentane is first removed using a conventional still, and then a Dufton type column of a size suited to the volume remaining to be concentrated.
The constituents of the concentrated extract are separated using a capillary column (25 m×0.32 mm I.D.) containing a CP wax 52 CB (Chrompack, Middelburg, Netherlands) polar phase. The grafted polyethylene glycol film was selected thick (1.28 μm) in order to permit the injection of large sample volumes, up to 4 μl. […]
Furthermore, each fraction was subjected to the sequential action of α-arabinosidase and then β-glucosidase. At the end of each stage and according to the procedures described, the incubated medium was analysed by GC in order to test for sugars and glucosides on the one hand, and for terpenols on the other hand. […]

β-apiosidase = assay: Enzymatic hydrolysis of Api-Glc-Ger by β-apiosidase present in Klerzyme 200 (TLC); type: biochemical
Procedure: The β-apiosidase present in a commercial enzyme preparation (Klerzyme 200, Gist-brocades, France) was used without further purification.
(§4) Thin-layer adsorption chromatography was carried out on pieces of aluminium foil covered with a thin layer (0.2 mm) of silica gel (5553 Silica gel 60 without a fluorescence indicator, Merck). An ethyl acetate/isopropanol/water (65:30:10 v/v/v) mixture was used as a migration solvent.
(§5) The sugars and the glycosides are visualized by means of the following mixture, prepared immediately before use: 0.2% naphthoresorcinol in ethanol/concentrated sulphuric acid (19:1 v/v). The application of this visualizing agent is followed by drying the plates in the oven (105° C.) for 15 minutes. Apart from their migration distance, the various compounds are also distinguished by their colour. The glycosides are purple-red, the arabinosides are bluish, the apiosides are green, rhamnose greenish pink, arabinose blue, apiose green and glucose pink.
(§6) In all the tests relating to the enzymatic hydrolysis of the synthetic substrates, the same glycosidase activity (0.15 nkat) is used for each of the enzymes (α-arabinosidase, apiosidase, α-rhamnosidase, β-glucosidase).

α-arabinosidase [3] = assay: Enzymatic hydrolysis of synthetic substrates by α-arabinosidase (TLC); type: biochemical; settings: 0.15 nkat, 40° C., 90 min, pH 4.2
Procedure: as §4, §5, §6
(§7) The hydrolysis and analysis protocols are given in plan form (Table 2). […]

[4] = Enzymatic hydrolysis of a glycosidic extract in natural media (must, dry wine) by Hemicellulase REG2 + Naringinase; type: biochemical; settings: 25° C., 86 hours
Procedure: The enzymatic hydrolysis of a glycosidic extract incorporated, on the one hand into a natural medium (must or dry wine), and on the other hand into a reference medium (buffer), by the action of commercial preparations containing the requisite three glycosidases, was studied.
A juice and a wine of a vine variety not containing terpenols and terpene glycosides, but enriched beforehand with a known amount of glycosidic extract of muscat, are treated with commercial enzyme preparations. The media, as well as controls, are incubated at 25° C. for 86 hours (see the experimental protocol plan below). They are then passed through a column of Amberlite XAD-2 according to the protocol applied for the production of the glycosidic extract, and the terpenols are assayed by GC.

β-glucosidase [5] = assay: Enzymatic hydrolysis of synthetic substrates by β-glucosidase (TLC, pNP liberated, GC); type: biochemical, sweet almond; settings: media previously incubated with α-arabinosidase or α-rhamnosidase; 0.15 nkat, 40° C., 90 min
Procedure: as §5, with “An ethyl acetate/isopropanol/water (65:30:10 v/v/v) mixture was used as a migration solvent. The sugars” for “The sugars”, “glucose pink. […] The hydrolysis and analysis protocols are given in plan form (Table 2). […]” for “glucose pink.”

[6] = target: T1, β-glucosidase (originating from the yeast Candida wickerhamii CBS 2928) (Nakazawaea wickerhamii, UniProt Q12601); assay: Hydrolysis of monoglucosides in naturally sweet wines by Candida wickerhamii β-glucosidase; type: biochemical
T1 sequence (Q12601 20-609): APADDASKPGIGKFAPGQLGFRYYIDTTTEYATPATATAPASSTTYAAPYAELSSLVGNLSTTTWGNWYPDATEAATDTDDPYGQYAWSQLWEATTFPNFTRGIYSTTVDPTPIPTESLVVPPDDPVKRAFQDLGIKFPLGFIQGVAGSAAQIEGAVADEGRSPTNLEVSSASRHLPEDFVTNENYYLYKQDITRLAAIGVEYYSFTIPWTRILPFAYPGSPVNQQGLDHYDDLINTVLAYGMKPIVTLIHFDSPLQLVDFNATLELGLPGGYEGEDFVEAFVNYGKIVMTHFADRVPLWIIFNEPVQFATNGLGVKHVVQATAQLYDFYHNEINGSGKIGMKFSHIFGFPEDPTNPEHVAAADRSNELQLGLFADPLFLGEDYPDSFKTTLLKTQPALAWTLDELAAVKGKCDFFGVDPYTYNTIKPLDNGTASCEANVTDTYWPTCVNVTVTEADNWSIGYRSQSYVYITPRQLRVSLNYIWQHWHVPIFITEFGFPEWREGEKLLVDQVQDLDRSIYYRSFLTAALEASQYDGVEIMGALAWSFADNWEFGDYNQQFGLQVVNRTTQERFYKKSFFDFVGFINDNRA

α-rhamnosidase [7] = assay: Enzymatic hydrolysis of the muscat glycosidic extract by α-rhamnosidase (GC); type: biochemical; settings: 0.15 nkat, 40° C., 16 h
Procedure: as §1, §2, §3

β-glucosidase [8] = assay: Second stage: consecutive action of β-glucosidase on the pre-incubated glycosidic extract (GC); type: biochemical, sweet almond; settings: 0.15 nkat, 40°, 16 h
Procedure: as §1, §2, §3

α-rhamnosidase [9] = assay: Enzymatic hydrolysis of synthetic substrates by α-rhamnosidase (TLC); type: biochemical; settings: 0.15 nkat, 40° C., 90 min, pH 4.2
Procedure: as §4, §5, §6, §7

[10] = test system: β-glucosidase (originating from Aspergillus niger); assay: Inhibition of β-glucosidase activity by glucose in must and sweet wine; type: biochemical

GC peak of the glycosidic extract after incubation with α-arabinosidase (α-arabinosidase [1]): disappear completely | Compounds appearing after action of α-arabinosidase (α-arabinosidase [1]): Glc--Ger | Compounds appearing after action of α-arabinosidase and then β-glucosidase [2]: geraniol
Compound: CC(C)=CCC/C(C)=C/CO[C@@H]1O[C@H](CO[C@@H]2O[C@@H](CO)[C@H](O)[C@H]2O)[C@@H](O)[C@H](O)[C@H]1O (single isomer, unassigned) [Ara-Glc-Ger, Geranyl 6-O-(α-L-arabinofuranosyl)-β-D-glucopyranoside]

Compound: CC(C)=CCC/C(C)=C/CO[C@@H]1O[C@H](CO[C@@H]2OC[C@](O)(CO)[C@H]2O)[C@@H](O)[C@H](O)[C@H]1O [Api-Glc-Ger, geranyl β-D-apiofuranosyl-(1→6)-β-D-glucopyranoside]
hydrolysis by β-apiosidase present in Klerzyme 200 (TLC) (β-apiosidase): disappearance of the substrate and the appearance of apiose and glucose

GC peak of the glycosidic extract after incubation with α-arabinosidase (α-arabinosidase [1]): disappear completely | Compounds appearing after action of α-arabinosidase (α-arabinosidase [1]): Glc--Ner | Compounds appearing after action of α-arabinosidase and then β-glucosidase [2]: nerol
Compound: CC(C)=CCC/C(C)=C\CO[C@@H]1O[C@H](CO[C@@H]2O[C@@H](CO)[C@H](O)[C@H]2O)[C@@H](O)[C@H](O)[C@H]1O [Ara-Glc-Ner, neryl a-L-arabinofuranosyl-(1→6)-β-D-glucopyranoside]

Compound: O=[N+]([O-])c1ccc(O[C@@H]2O[C@H](CO[C@@H]3O[C@@H](CO)[C@H](O)[C@H]3O)[C@@H](O)[C@H](O)[C@H]2O)cc1 [Ara-Glc-pNP, p-Nitrophenyl 6-O-(α-L-arabinofuranosyl)-β-D-glucopyranoside]
hydrolysis by α-arabinosidase (TLC) (α-arabinosidase [3]): disappearance of this substrate and the appearance of arabinose and Glc-pNP

Compound: OCc1ccccc1 [Benzyl alcohol]
Compounds liberated relative to the reference medium ([4]; MUST (pH 3.4, sugars 180 g/l)): 46% | Compounds liberated relative to the reference medium ([4]; WINE (dry white, pH 3.1)): 50%

hydrolyzed by Candida wickerhamii β-glucosidase ([6]; pH 3.6): 45% | hydrolyzed by Candida wickerhamii β-glucosidase ([6]; pH 4.0): two thirds | Terpene monoglucosides liberated by α-arabinosidase from a glycosidic extract (α-arabinosidase [1]): 39% | % of monoglucosides (liberated by the two enzymes together) (α-arabinosidase [1]): 48% | Terpene monoglucosides liberated by α-rhamnosidase from a glycosidic extract (α-rhamnosidase [7]): 9% | hydrolysis by consecutive action of β-glucosidase (second stage, GC) (β-glucosidase [8]): disappearance
Compound: CC(C)=CCC/C(C)=C/CO[C@@H]1O[C@H](CO)[C@@H](O)[C@H](O)[C@H]1O [Glc-Ger, geranyl β-D-glucopyranoside]
consecutive action of β-glucosidase (second stage, TLC) (β-glucosidase [5]): disappearance of Glc-Ger and Glc-pNP and the appearance of glucose

hydrolyzed by Candida wickerhamii β-glucosidase ([6]; pH 3.6): 19% | hydrolyzed by Candida wickerhamii β-glucosidase ([6]; pH 4.0): two thirds | Terpene monoglucosides liberated by α-arabinosidase from a glycosidic extract (α-arabinosidase [1]): 28% | % of monoglucosides (liberated by the two enzymes together) (α-arabinosidase [1]): 33% | Terpene monoglucosides liberated by α-rhamnosidase from a glycosidic extract (α-rhamnosidase [7]): 5% | hydrolysis by consecutive action of β-glucosidase (second stage, GC) (β-glucosidase [8]): disappearance
Compound: CC(C)=CCC/C(C)=C\CO[C@@H]1O[C@H](CO)[C@@H](O)[C@H](O)[C@H]1O [Glc-Ner, neryl β-D-glucopyranoside]

Compound: O=[N+]([O-])c1ccc(O[C@@H]2O[C@H](CO)[C@@H](O)[C@H](O)[C@H]2O)cc1 [Glc-pNP, p-nitrophenyl β-D-glucopyranoside, reference compound]
consecutive action of β-glucosidase (second stage, TLC) (β-glucosidase [5]): disappearance of Glc-Ger and Glc-pNP and the appearance of glucose

Compounds liberated relative to the reference medium ([4]; MUST (pH 3.4, sugars 180 g/l)): 9% | Compounds liberated relative to the reference medium ([4]; WINE (dry white, pH 3.1)): 14%
Compound: C=CC(C)(O)CCC=C(C)C (stereo not shown) [Linalol]

GC peak of the glycosidic extract after the action of α-rhamnosidase (α-rhamnosidase [7]): decreases | hydrolysis by α-rhamnosidase (TLC) (α-rhamnosidase [9]): disappearance of these substrates
Compound: CC(C)=CCC/C(C)=C/CO[C@@H]1O[C@H](CO[C@@H]2O[C@@H](C)[C@H](O)[C@@H](O)[C@H]2O)[C@@H](O)[C@H](O)[C@H]1O [Rha-Glc-Ger, Geranyl 6-O-(α-L-rhamnopyranosyl)-β-D-glucopyranoside]

hydrolysis by α-rhamnosidase (TLC) (α-rhamnosidase [9]): disappearance of these substrates
Compound: C[C@@H]1O[C@@H](OC[C@H]2O[C@@H](Oc3ccc([N+](=O)[O-])cc3)[C@H](O)[C@@H](O)[C@@H]2O)[C@H](O)[C@H](O)[C@H]1O [Rha-Glc-pNP]

Compound: OC[C@H]1OC(O)[C@H](O)[C@@H](O)[C@@H]1O (stereo partly shown) [glucose]
effect on β-glucosidase activity ([10]; glucose 30 g/l in naturally sweet wines): inhibiting β-glucosidase | effect on β-glucosidase activity ([10]; glucose present in large amounts in the must): inhibition of the β-glucosidase activity

— patent US5573926A, “Process for obtaining aroma components and aromas from their precursors of a glycosidic nature, and aroma components and aromas thereby obtained” (Gist-brocades, N.V., priority 1989, dated 1996)
